# Laboratory results taken from patent US11897796B2, “Compositions of heterocyclic compounds and uses as sulfidogenesis inhibitors” (ChampionX USA Inc., priority 2020, dated 2024).
# Like-named read-outs stand apart in the source and are kept apart here.
# How the values were obtained:
# [1] = test system: sulfate reducing microorganisms
# Protocol: Sample preparation and test conditions. The sulfidogenesis inhibitor MBO was tested using a pressurized bioreactor system. Two sand packed bioreactors were used to establish a sour population of sulfate reducing microorganisms with a seawater mixture for one month. The pressurized bioreactors maintained a flow rate of 0.05 mL/minute and were held at a temperature of 30° C. and a pressure of 1000 psig. Once both bioreactors contained sufficient sulfide in the effluent, one bioreactor remained untreated (control bioreactor) and the other bioreactor was dosed with MBO (test bioreactor) throughout the remaining four months of the study. The sulfide levels were measured in the control and test bioreactors weekly. MBO was dosed continuously in increasing increments at 25, 50, 100, and 150 ppm for roughly five weeks of the experiment. Next, a 4-hour batch treatment of MBO at 500 ppm was also tested twice followed by a low continuous dosage of MBO at 80 ppm and 100 ppm, respectively. The pH of the system was then decreased from 8.5 to 7.5 and then 7.5 to 6.5 to observe the effect of pH on MBO's efficacy at inhibiting sulfidogenesis. Once the pH of the bioreactor had stabilized at 6.5, MBO was dosed continuously in decreasing increments at 150 ppm, 100 ppm, 80 ppm and 50 ppm. At the end of the study, the dosing of MBO was ceased to monitor when sulfide levels would return in the test bioreactor.
# The pH measured in the system and the dosage of MBO throughout the study is recorded as well.
# [2] = test system: sulfur-utilizing prokaryotes; details: after 8 weeks; for Average reduction in biogenic sulfide: compared to untreated; for Average Sulfide: field water, 37° C.
# Protocol: Sample Preparation and Test Conditions. Field water samples were collected and shipped under anoxic conditions. Prior to setting up the bottle test, the water was sparged with carbon dioxide in a nitrogen environment overnight to remove the existing hydrogen sulfide. The water sample was then supplemented with 50 mg/L acetate, 5 mg/L propionate, and 5 mg/L butyrate and trace elements and vitamins. Fluids (100 mL) were aliquoted into 125 mL glass serum bottles containing a carbon steel 1018 ball bearing. Triplicate experiments were performed. Three bottles were left untreated and three bottles were treated each with 50 ppm and 80 ppm of the desired chemistry. Samples were incubated at 37° C. for 8 weeks.
# (§1) A sulfide test kit (Code 4456-01, available from LaMotte) was used to test the efficacy of 3,3′-methylenebis[5-methyloxazolidine]
# [3] = test system: sulfur-utilizing prokaryotes; details: after 6 weeks; for Average Sulfide: Source 2 field water, 37° C.
# Protocol: Sample Preparation and Test Conditions. Field water samples were treated with additional organic acids (e.g., Source 2) and were collected and shipped under anoxic conditions. Prior to setting up the bottle test, the water was sparged with carbon dioxide in a nitrogen environment overnight to remove the existing hydrogen sulfide. The water sample was then supplemented with 1 mM acetate, trace elements, and vitamins. Fluids (100 mL) were aliquoted into 125 mL glass serum bottles containing a carbon steel 1018 ball bearing. Triplicate experiments were performed. Three bottles were left untreated and three bottles were treated each at a concentration of 80 ppm, 120 ppm, and 150 ppm of the desired chemistry based on the total weight of the sample. Samples were incubated at 37° C. for 6 weeks.
# as §1
structure (smiles),measurement,setting,value
"CC1CN(CN2COC(C)C2)CO1 (stereo not drawn) [MBO, 3,3′-methylenebis[5-methyloxazolidine]]",Test Bioreactor Sulfide,"[1]; Day 21 (as printed, between days 30 and 35), dosage of MBO 25 ppm, pH 8.5",44.6 mg/L
same,Test Bioreactor Sulfide,"[1]; Day 30, dosage of MBO 25 ppm, pH 8.5",34.9 mg/L
same,Test Bioreactor Sulfide,"[1]; Day 35, dosage of MBO 25 ppm, pH 8.5",45.7 mg/L
same,Test Bioreactor Sulfide,"[1]; Day 37, dosage of MBO 50 ppm, pH 8.5",46.2 mg/L
same,Test Bioreactor Sulfide,"[1]; Day 38, dosage of MBO 50 ppm, pH 8.5",48.7 mg/L
same,Test Bioreactor Sulfide,"[1]; Day 42, dosage of MBO 50 ppm, pH 8.5",44.8 mg/L
same,Test Bioreactor Sulfide,"[1]; Day 44, dosage of MBO 100 ppm, pH 8.5",44.2 mg/L
same,Test Bioreactor Sulfide,"[1]; Day 45, dosage of MBO 100 ppm, pH 8.5",41.0 mg/L
same,Test Bioreactor Sulfide,"[1]; Day 46, dosage of MBO 100 ppm, pH 8.5",10.3 mg/L
same,Test Bioreactor Sulfide,"[1]; Day 49, dosage of MBO 100 ppm, pH 8.5",3.1 mg/L
same,Test Bioreactor Sulfide,"[1]; Day 51, dosage of MBO 100 ppm, pH 8.5",0.7 mg/L
same,Test Bioreactor Sulfide,"[1]; Day 52, dosage of MBO 100 ppm, pH 8.5",0.5 mg/L
same,Test Bioreactor Sulfide,"[1]; Day 53, dosage of MBO 100 ppm, pH 8.5",3.1 mg/L
same,Test Bioreactor Sulfide,"[1]; Day 56, dosage of MBO 100 ppm, pH 8.5",5.3 mg/L
same,Test Bioreactor Sulfide,"[1]; Day 58, dosage of MBO 150 ppm, pH 8.5",4.9 mg/L
same,Test Bioreactor Sulfide,"[1]; Day 60, dosage of MBO 150 ppm, pH 8.5",1.0 mg/L
same,Test Bioreactor Sulfide,"[1]; Day 63, dosage of MBO 150 ppm, pH 8.5",21.5 mg/L
same,Test Bioreactor Sulfide,"[1]; Day 65, dosage of MBO 150 ppm, pH 8.5",19.9 mg/L
same,Test Bioreactor Sulfide,"[1]; Day 67, dosage of MBO 150 ppm, pH 8.5",25.7 mg/L
same,Test Bioreactor Sulfide,"[1]; Day 70, dosage of MBO 150 ppm, pH 8.5",29.1 mg/L
same,Test Bioreactor Sulfide,"[1]; Day 72, dosage of MBO 0 ppm (dosing paused after 150 ppm), pH 8.5",29.4 mg/L
same,Test Bioreactor Sulfide,"[1]; Day 74, dosage of MBO 0 ppm (dosing paused after 150 ppm), pH 8.5",21.9 mg/L
same,Test Bioreactor Sulfide,"[1]; Day 77, dosage of MBO 0 ppm (dosing paused after 150 ppm), pH 8.5",32.0 mg/L
same,Test Bioreactor Sulfide,"[1]; Day 78, dosage of MBO 500 ppm (4 hours batch) + 80 ppm, pH 8.5",37.2 mg/L
same,Test Bioreactor Sulfide,"[1]; Day 79, dosage of MBO 80 ppm after 500 ppm batch, pH 8.5",37.8 mg/L
same,Test Bioreactor Sulfide,"[1]; Day 80, dosage of MBO 80 ppm after 500 ppm batch, pH 8.5",23.0 mg/L
same,Test Bioreactor Sulfide,"[1]; Day 81, dosage of MBO 80 ppm after 500 ppm batch, pH 8.5",27.7 mg/L
same,Test Bioreactor Sulfide,"[1]; Day 84, dosage of MBO 80 ppm after 500 ppm batch, pH 8.5",31.8 mg/L
same,Test Bioreactor Sulfide,"[1]; Day 86, dosage of MBO 80 ppm after 500 ppm batch, pH 3.5 (so in the source)",32.0 mg/L
same,Test Bioreactor Sulfide,"[1]; Day 88, dosage of MBO 0 ppm (dosing paused after 80 ppm), pH 8.5",29.1 mg/L
same,Test Bioreactor Sulfide,"[1]; Day 91, dosage of MBO 0 ppm (dosing paused after 80 ppm), pH 8.5",25.6 mg/L
same,Test Bioreactor Sulfide,"[1]; Day 93, dosage of MBO 500 ppm (4 hours batch) + 100 ppm, pH 8.5",30.7 mg/L
same,Test Bioreactor Sulfide,"[1]; Day 94, dosage of MBO 100 ppm after 500 ppm batch, pH 8.5",24.1 mg/L
same,Test Bioreactor Sulfide,"[1]; Day 95, dosage of MBO 100 ppm after 500 ppm batch, pH 8.5",24.2 mg/L
same,Test Bioreactor Sulfide,"[1]; Day 98, dosage of MBO 100 ppm after 500 ppm batch, pH 8.5",20.3 mg/L
same,Test Bioreactor Sulfide,"[1]; Day 100, dosage of MBO 100 ppm, pH 7.5",20.1 mg/L
same,Test Bioreactor Sulfide,"[1]; Day 101, dosage of MBO 100 ppm, pH 7.5",9.9 mg/L
same,Test Bioreactor Sulfide,"[1]; Day 102, dosage of MBO 100 ppm, pH 7.5",16.6 mg/L
same,Test Bioreactor Sulfide,"[1]; Day 105, dosage of MBO 100 ppm, pH 7.5",22.5 mg/L
same,Test Bioreactor Sulfide,"[1]; Day 107, dosage of MBO 100 ppm, pH 6.5",20.2 mg/L
same,Test Bioreactor Sulfide,"[1]; Day 108, dosage of MBO 100 ppm, pH 6.5",23.4 mg/L
same,Test Bioreactor Sulfide,"[1]; Day 109, dosage of MBO 100 ppm, pH 6.5",20.9 mg/L
same,Test Bioreactor Sulfide,"[1]; Day 112, dosage of MBO 100 ppm, pH 6.5",18.2 mg/L
same,Test Bioreactor Sulfide,"[1]; Day 114, dosage of MBO 150 ppm, pH 6.5",16.3 mg/L
same,Test Bioreactor Sulfide,"[1]; Day 115, dosage of MBO 150 ppm, pH 6.5",7.7 mg/L
same,Test Bioreactor Sulfide,"[1]; Day 116, dosage of MBO 150 ppm, pH 6.5",2.9 mg/L
same,Test Bioreactor Sulfide,"[1]; Day 119, dosage of MBO 150 ppm, pH 6.5",0.7 mg/L
same,Test Bioreactor Sulfide,"[1]; Day 121, dosage of MBO 150 ppm, pH 6.5",0.5 mg/L
same,Test Bioreactor Sulfide,"[1]; Day 122, dosage of MBO 150 ppm, pH 6.5",0.5 mg/L
same,Test Bioreactor Sulfide,"[1]; Day 123, dosage of MBO 150 ppm, pH 6.5",0.5 mg/L
same,Test Bioreactor Sulfide,"[1]; Day 126, dosage of MBO 150 ppm, pH 6.5",0.5 mg/L
same,Test Bioreactor Sulfide,"[1]; Day 128, dosage of MBO 100 ppm (decreasing increments), pH 6.5",0.5 mg/L
same,Test Bioreactor Sulfide,"[1]; Day 129, dosage of MBO 100 ppm (decreasing increments), pH 6.5",0.5 mg/L
same,Test Bioreactor Sulfide,"[1]; Day 130, dosage of MBO 100 ppm (decreasing increments), pH 6.5",0.5 mg/L
same,Test Bioreactor Sulfide,"[1]; Day 133, dosage of MBO 100 ppm (decreasing increments), pH 6.5",0.5 mg/L
same,Test Bioreactor Sulfide,"[1]; Day 135, dosage of MBO 80 ppm (decreasing increments), pH 6.5",0.5 mg/L
same,Test Bioreactor Sulfide,"[1]; Day 136, dosage of MBO 80 ppm (decreasing increments), pH 6.5",0.5 mg/L
same,Test Bioreactor Sulfide,"[1]; Day 137, dosage of MBO 80 ppm (decreasing increments), pH 6.5",0.5 mg/L
same,Test Bioreactor Sulfide,"[1]; Day 140, dosage of MBO 80 ppm (decreasing increments), pH 6.5",0.5 mg/L
same,Test Bioreactor Sulfide,"[1]; Day 141, dosage of MBO 50 ppm (decreasing increments), pH 6.5",0.5 mg/L
same,Test Bioreactor Sulfide,"[1]; Day 144, dosage of MBO 50 ppm (decreasing increments), pH 6.5",0.5 mg/L
same,Test Bioreactor Sulfide,"[1]; Day 147, dosage of MBO 50 ppm (decreasing increments), pH 6.5",0.5 mg/L
same,Test Bioreactor Sulfide,"[1]; Day 150, dosage of MBO 0 ppm (dosing ceased at end of study), pH 6.5",0.5 mg/L
same,Test Bioreactor Sulfide,"[1]; Day 151, dosage of MBO 0 ppm (dosing ceased at end of study), pH 6.5",0.5 mg/L
same,Test Bioreactor Sulfide,"[1]; Day 154, dosage of MBO 0 ppm (dosing ceased at end of study), pH 6.5",0.5 mg/L
same,"sulfide levels in the test bioreactor, lowest reached","[1]; dosage of MBO at 100 ppm, initial decrease, sulfide levels started to increase again afterwards",0.5 mg/L
same,sulfide levels in the test bioreactor,"[1]; pH 6.5, dosing MBO at 150 ppm, stayed throughout remainder of study through decreasing dosages",0.5 mg/L
same,effect on sulfide levels in the test bioreactor,[1]; two high batch dosages of MBO at 500 ppm followed by low continuous dosage at 80 and 100 ppm,did not further decrease sulfide levels
same,Average reduction in biogenic sulfide,[2]; MBO 50 ppm,37.03%
same,Average Sulfide,[2]; MBO 50 ppm,4.64 ppm
same,Average reduction in biogenic sulfide,[2]; MBO 80 ppm,93.81%
same,Average Sulfide,[2]; MBO 80 ppm,0.46 ppm
same,Average Sulfide,[3]; MBO 80 ppm,0.09 ppm
same,Average reduction in biogenic sulfide,[3]; MBO 80 ppm,98.4%
same,Average Sulfide,[3]; MBO 120 ppm,0.09 ppm
same,Average reduction in biogenic sulfide,[3]; MBO 120 ppm,98.4%
same,Average Sulfide,[3]; MBO 150 ppm,0.13 ppm
same,Average reduction in biogenic sulfide,[3]; MBO 150 ppm,97.8%
